# Patent US20230357363A1, “PROTEIN DOUBLE-SHELL NANOSTRUCTURES AND THEIR USE” (The Board of Trustees of the Leland Stanford Junior …, priority 2020, published 2023)
# System: BODIPY-conjugated pKID domain of CREB protein
# Test: Fluorescence polarization assay of MBP-KIX-apoferritin with BODIPY-conjugated pKID
# Type: binding
# Settings: FP assay, protein titrated against BODIPY-pKID, read 30 minutes after mixing
# From the text: FIGS. 1A-1D. The design of double-shell system. FIG. 1A. The double shell system is shown by cartoon with apoferritin as inner cage, MBP as outer cage, and small cargo proteins in the middle portion. FIG. 1B. Strategy of plasmid construction. The cargo protein KIX C-terminus is fused to the apoferritin N-terminus with the C-terminal 668-672 residues of KIX and N-terminal 1-5 residues of apoferritin truncated for stability. Several mutations (shown as lightning) were also incorporated on the interface between KIX and apoferritin to enhance stability. The MBP tag is fused to the KIX N-terminus. FIG. 1C. Design of mutations that stabilize the KIX domain of CBP on the apoferritin complex. […] Fluorescence polarization assay using the BODIPY-conjugated phosphorylated KID domain of CREB and KIX, MBP-KIX-apoferritin construct 3, or MBP-apoferritin. […]
# Fluorescence polarization (FP) using the MBP-KIX-apoferritin and the BODIPY-conjugated phosphorylated pKID domain of CREB was performed as described previously^16. […] Phosphorylation efficiency of pKID, which was assessed using a SDS-gel containing Phos-tag™ Acrylamide (FUJIFILM), was almost 100%. pKID was purified using the phosphoprotein enrichment kit (Takara). […] Molar concentration of KIX, MBP-KIX-apoferritin construct 3, and MBP-apoferritin was calculated as a monomer. FP was measured 30 minutes after mixing using INFINITE M1000 PRO (TECAN). […]
substance,measurement,value
"MKF: 24-mer MBP-KIX-apoferritin fusion protein double-shell nanostructure from construct 3 (T27C, A31C, E169C, C177S, E237C)",binding affinity of KIX for the BODIPY-conjugated pKID domain of CREB (function of KIX in the 24-mer complex),still maintained its function
